Results as given in ChEMBL document CHEMBL1201862, “PubChem BioAssay data set” (2004).
Activity calls are given as the source filed them.

Experiments:
[1] = Luminescence Cell-Based Dose Retest to Confirm Inhibitors of Cancer Stem Cells. [Related pubchem assays (depositor defined):AID2717, AID2721]; assay type: functional; details: Homo sapiens
[2] = cytotoxicity in HMLE control line with eGFP shRNA, dose response, counter-screen for HMLE_sh_ECad selective toxicity project, cell-based, HMLE_sh_eGFP, luminescence (AID 463074); assay type: functional, Homo sapiens;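 further: HMLE human mammary epithelial cells expressing control shRNA against eGFP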
[3] = insulin promoter down-regulators in MIN6 cells, imaging, high-content screening, mouse beta cells (AID 1628); assay type: functional
[4] = test system: Streptococcus sp. 'group A'; test: growth inhibition of control SK(-) GAS strain, dose response, counter-screen for streptokinase expression inhibitor project, luminescence, kanamycin, BacTiterGlo, confirmation (AID 1900); assay type: functional, organism-based
cells [5] = assay type: functional, cell-based
[6] = cytotoxicity in MIN6 insulinoma cells, dose response, cytotoxicity control, cell-based, mouse insulinoma (AID 2122); assay type: functional;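 further: confirmatory high-throughput counterscreen run to flag cytotoxic compounds; mouse MIN-6 beta cells carrying an insulin promoter eGFP reporter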
Streptokinase A = biological target: T1, Streptokinase A (Streptococcus pyogenes serotype M1, UniProt P10520); test: S. pyogenes streptokinase expression inhibitors, potency, dose response, plasminogen activation absorbance, OD405 (AID 1914); assay type: functional, Streptococcus pyogenes M1 GAS;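 further: secreted streptokinase activity via plasminogen activation per viability signal from cell pellet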
T1 sequence (P10520 whole entry): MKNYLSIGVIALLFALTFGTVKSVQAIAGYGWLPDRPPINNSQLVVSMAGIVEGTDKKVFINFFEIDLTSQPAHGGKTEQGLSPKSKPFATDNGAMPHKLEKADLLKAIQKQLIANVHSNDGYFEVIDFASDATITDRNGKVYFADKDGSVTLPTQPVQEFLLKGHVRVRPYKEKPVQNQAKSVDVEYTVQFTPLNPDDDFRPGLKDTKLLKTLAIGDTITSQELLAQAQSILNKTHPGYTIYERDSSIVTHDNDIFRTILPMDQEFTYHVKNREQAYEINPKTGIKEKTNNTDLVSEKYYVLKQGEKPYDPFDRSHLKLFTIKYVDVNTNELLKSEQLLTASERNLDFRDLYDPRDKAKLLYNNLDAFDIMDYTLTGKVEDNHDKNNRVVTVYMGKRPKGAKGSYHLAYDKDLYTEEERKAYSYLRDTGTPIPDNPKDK

[7] = inhibitors of intracellular T. cruzi replication, confirmation, NIH3T3 host cells, beta-gal luminescence (AID 2044); assay type: functional, cell-based;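 further: intracellular parasites grown in NIH/3T3 mouse fibroblasts as host cells; luminescent beta-galactosidase reporter signal from transgenic T. cruzi replicating inside host cells; inhibitors lower the luminescence signal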
cells [8] = assay type: functional, cell-based; remark: listed apart in the source
[9] = cytotoxicity toward NIH3T3 fibroblasts, dose response, counter-screen, cell-based, ATP luminescence, mouse fibroblasts (AID 2010); assay type: functional;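 further: cells exposed to compound for about 90 hours before reading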
Streptococcus = test: Group A Streptococcus viability loss, dose response, counter-screen for streptokinase expression inhibitor project, luminescence, BacTiterGlo (AID 1915); assay type: functional, organism-based;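 further: potency for reduction of bacterial viability or growth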
[10] = biological target: T2, Type-1 angiotensin II receptor (Homo sapiens, UniProt P30556); test: AT1 receptor agonists, dose response, selectivity assay for APJ receptor agonist project, cell-based, uHTS hits (AID 488865); assay type: functional;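 further: beta-arrestin recruitment to AT1 measured by enzyme fragment complementation luminescence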
T2 sequence (P30556 whole entry): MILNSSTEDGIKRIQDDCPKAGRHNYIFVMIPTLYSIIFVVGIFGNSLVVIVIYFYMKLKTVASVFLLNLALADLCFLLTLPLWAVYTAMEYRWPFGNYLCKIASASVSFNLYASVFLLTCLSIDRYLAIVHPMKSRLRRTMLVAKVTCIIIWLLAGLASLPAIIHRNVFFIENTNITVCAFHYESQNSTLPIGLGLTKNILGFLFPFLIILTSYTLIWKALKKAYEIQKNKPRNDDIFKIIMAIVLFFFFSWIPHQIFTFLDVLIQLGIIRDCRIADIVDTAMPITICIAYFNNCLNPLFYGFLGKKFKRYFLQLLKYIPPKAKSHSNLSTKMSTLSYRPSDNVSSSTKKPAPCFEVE

INS1 = test: beta cell apoptosis inhibitors, cytokine rescue, dose response, luminescence, retest (AID 449756); assay type: functional, cell-based; details: Rattus norvegicus;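 further: cell death triggered by IL-1 beta plus TNF-alpha plus IFN-gamma mixture; protective hits raise ATP signal compared with cytokine alone wells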
[11] = Shn3 3'UTR reporter inhibitors, dose response, cell-based, Clone20 osteoblasts, firefly luciferase, cherry-picked (AID 624132); assay type: functional;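 further: firefly luciferase luminescence from reporter carrying the Shn3 3'UTR in osteoblasts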
[12] = HepG2 cell cytotoxicity, dose response, cytotoxicity control for Shn3 inhibitor project, CellTiter-Glo, cherry-picked (AID 624134); assay type: functional, cell-based
[13] = control 3'UTR Renilla luciferase suppression, dose response, counter-screen for Shn3 inhibitor project, cell-based, Clone20-Shn3RL, cherry-picked (AID 624133); assay type: functional
[14] = biological target: T3, Probable nicotinate-nucleotide adenylyltransferase (Staphylococcus aureus (strain N315), UniProt P65502); assay type: functional, Staphylococcus aureus subsp. aureus N315;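 on IC50 Mean: confirmatory dose-response retesting of NadD inhibitor hits first found in an ultra-high-throughput screen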
T3 sequence (P65502 whole entry): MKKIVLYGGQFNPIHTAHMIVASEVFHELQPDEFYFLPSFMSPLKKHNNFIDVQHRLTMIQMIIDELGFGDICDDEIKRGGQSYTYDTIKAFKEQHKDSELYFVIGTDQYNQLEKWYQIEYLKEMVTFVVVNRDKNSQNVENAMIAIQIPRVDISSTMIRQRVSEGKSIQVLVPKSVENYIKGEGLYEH

[15] = biological target: T3, Probable nicotinate-nucleotide adenylyltransferase; assay type: functional, Staphylococcus aureus subsp. aureus N315; details: read-out: IC50_Mean
Paired box protein Pax-8 = Paired box protein Pax-8 (Homo sapiens, UniProt Q06710); test: inhibitors of PAX8-driven TPO luciferase reporter, dose response, RMG-I cells, cherry-pick (AID 687027); assay type: functional, cell-based;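 further: luciferase reporter driven by Pax8 target thyroperoxidase promoter measured by SteadyGlo luminescence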
Paired box protein Pax-8, sequence (Q06710 whole entry): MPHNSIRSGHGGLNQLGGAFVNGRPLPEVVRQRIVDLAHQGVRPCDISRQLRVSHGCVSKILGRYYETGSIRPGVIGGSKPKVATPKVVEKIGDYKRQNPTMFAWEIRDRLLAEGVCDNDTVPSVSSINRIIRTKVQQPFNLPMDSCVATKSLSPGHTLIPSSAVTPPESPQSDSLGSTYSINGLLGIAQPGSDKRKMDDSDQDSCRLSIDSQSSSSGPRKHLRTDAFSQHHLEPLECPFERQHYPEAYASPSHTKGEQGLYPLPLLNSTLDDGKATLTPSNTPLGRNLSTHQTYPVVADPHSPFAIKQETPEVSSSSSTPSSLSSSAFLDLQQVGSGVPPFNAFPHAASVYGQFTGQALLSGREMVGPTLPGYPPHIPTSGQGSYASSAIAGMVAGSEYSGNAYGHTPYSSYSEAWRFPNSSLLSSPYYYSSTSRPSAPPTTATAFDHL

[16] = PAX2 cell-based inhibition, dose response, selectivity assay for PAX8 inhibitor project, plate reader, dry powder samples (AID 743048); assay type: functional;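 further: HEK293 cells carrying a WT1 promoter luciferase reporter driven by expressed Pax2; potency is for inhibition of Pax2 driven reporter signal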
[17] = cytotoxicity in COV362 ovarian cancer cells, dose response, cytotoxicity control for PAX8 inhibitor project, cell-based, plate reader, dry powder, SA12 (AID 743144); assay type: functional
[18] = IOSE-T80 ovarian epithelial cell cytotoxicity, dose response, cytotoxicity control for PAX8 inhibitor project, plate reader, dry powder samples (AID 743045); assay type: functional, cell-based
[19] = A2780 ovarian cancer cell cytotoxicity, dose response, cytotoxicity control, plate reader, dry powder samples (AID 743046); assay type: functional, cell-based
[20] = NIH:OVCAR-3 ovarian cancer cell cytotoxicity, dose response, PAX8 inhibitor project, plate reader, dry powder samples (AID 743044); assay type: functional, cell-based
[21] = PAX5 activity inhibitors, dose response, selectivity assay for PAX8 inhibitor project, cell-based, plate reader, dry powder samples (AID 743047); assay type: functional;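 further: HEK293 cells carrying a Pax5 driven CD19 promoter luciferase reporter; potency of inhibitors that lower reporter luminescence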
[22] = IGROV1 ovarian cancer cell cytotoxicity, dose response, PAX8 inhibitor project, plate reader, dry powder samples (AID 743043); assay type: functional, cell-based; details: IGROV-1
[23] = cytotoxicity in OVCAR4 cells, dose response, cytotoxicity control for PAX8 inhibitor project, cell-based, plate reader, dry powder, SA11 (AID 743150); assay type: functional; details: OVCAR-4
[24] = cytotoxicity in COV434 cells, dose response, cytotoxicity control for PAX8 inhibitor project, cell-based, plate reader, dry powder, SA7 (AID 743145); assay type: functional
[25] = cytotoxicity in OV-90 ovarian cancer cells, dose response, PAX8 inhibitor project, cell-based, plate reader, dry powder, SA8 (AID 743149); assay type: functional
[26] = cytotoxicity dependent on PAX8, dose response, cell-based, plate reader, dry powder (AID 743049); assay type: functional
Escherichia coli = test: microbe, parasite or virus in culture
[27] = biological target: T4, RNA-binding protein pos-1 (Caenorhabditis elegans, UniProt G5EF15); test: inhibitors of POS-1/mex-3 RNA binding, dose response, biochemical, fluorescence polarization (AID 1964);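 further: purified POS-1 fused to maltose binding protein made in E. coli; potency of compounds blocking POS-1 binding to fluorescent RNA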
T4 sequence (G5EF15 whole entry): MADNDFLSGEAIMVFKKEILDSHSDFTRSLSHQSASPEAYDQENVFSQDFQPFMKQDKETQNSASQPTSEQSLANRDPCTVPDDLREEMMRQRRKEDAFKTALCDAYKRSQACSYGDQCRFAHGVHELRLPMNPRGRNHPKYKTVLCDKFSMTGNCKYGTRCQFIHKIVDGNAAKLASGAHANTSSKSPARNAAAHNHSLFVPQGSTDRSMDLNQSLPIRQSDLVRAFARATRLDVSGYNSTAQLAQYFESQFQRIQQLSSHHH

[28] = biological target: T5, Zinc finger protein mex-5 (Caenorhabditis elegans, UniProt Q9XUB2); test: MEX-5/TCR-2 RNA interaction inhibitors, dose response, biochemical, C. elegans, fluorescence polarization (AID 1960)
T5 sequence (Q9XUB2 whole entry): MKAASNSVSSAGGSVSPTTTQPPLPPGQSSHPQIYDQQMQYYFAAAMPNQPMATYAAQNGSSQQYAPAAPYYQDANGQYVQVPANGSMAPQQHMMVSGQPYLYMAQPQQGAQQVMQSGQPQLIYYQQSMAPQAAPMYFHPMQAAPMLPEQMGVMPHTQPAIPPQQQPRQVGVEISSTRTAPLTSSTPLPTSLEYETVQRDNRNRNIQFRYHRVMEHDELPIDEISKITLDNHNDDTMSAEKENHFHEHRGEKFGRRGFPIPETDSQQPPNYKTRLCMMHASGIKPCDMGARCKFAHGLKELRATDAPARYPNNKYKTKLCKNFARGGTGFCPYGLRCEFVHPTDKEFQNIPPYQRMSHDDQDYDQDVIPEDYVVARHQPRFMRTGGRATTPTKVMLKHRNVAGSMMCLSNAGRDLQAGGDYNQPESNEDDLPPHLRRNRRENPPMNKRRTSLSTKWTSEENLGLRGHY

[29] = biological target: Luciferin 4-monooxygenase (Photinus pyralis, UniProt P08659); test: firefly luciferase enzyme inhibitors, dose response, biochemical, luminescence (AID 1891)
Luciferin 4-monooxygenase, sequence (P08659 whole entry): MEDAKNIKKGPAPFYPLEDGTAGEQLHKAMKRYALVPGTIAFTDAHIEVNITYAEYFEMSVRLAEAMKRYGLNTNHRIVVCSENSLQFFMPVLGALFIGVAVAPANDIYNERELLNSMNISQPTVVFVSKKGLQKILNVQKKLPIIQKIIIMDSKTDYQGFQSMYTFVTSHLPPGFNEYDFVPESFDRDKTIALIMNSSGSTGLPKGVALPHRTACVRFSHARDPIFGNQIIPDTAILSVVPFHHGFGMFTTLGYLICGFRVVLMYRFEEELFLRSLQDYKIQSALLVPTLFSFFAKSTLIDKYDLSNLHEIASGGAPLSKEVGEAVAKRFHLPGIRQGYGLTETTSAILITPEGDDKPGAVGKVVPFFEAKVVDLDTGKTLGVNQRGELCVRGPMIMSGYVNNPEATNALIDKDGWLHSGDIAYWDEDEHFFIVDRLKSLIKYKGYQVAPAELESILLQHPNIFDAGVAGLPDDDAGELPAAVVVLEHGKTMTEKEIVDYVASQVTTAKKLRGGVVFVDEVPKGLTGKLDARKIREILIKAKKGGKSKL

[30] = biological target: Peroxisome proliferator-activated receptor gamma/Nuclear receptor corepressor 2 (Homo sapiens, UniProt P37231+Q9Y618); test: Counterscreen for NR2E3 inverse agonists: TR-FRET-based biochemical high throughput dose response assay to identify inverse agonists of the interaction between peroxisome proliferator-activated receptor gamma (PPARg) and nuclear receptor co-repressor 2 (NCOR2).; assay type: functional
[31] = biological target: Photoreceptor-specific nuclear receptor (Homo sapiens, UniProt Q9Y5X4); test: NR2E3 inverse agonists, dose response, biochemical, TR-FRET (AID 463256); assay type: functional
Photoreceptor-specific nuclear receptor, sequence (Q9Y5X4 whole entry): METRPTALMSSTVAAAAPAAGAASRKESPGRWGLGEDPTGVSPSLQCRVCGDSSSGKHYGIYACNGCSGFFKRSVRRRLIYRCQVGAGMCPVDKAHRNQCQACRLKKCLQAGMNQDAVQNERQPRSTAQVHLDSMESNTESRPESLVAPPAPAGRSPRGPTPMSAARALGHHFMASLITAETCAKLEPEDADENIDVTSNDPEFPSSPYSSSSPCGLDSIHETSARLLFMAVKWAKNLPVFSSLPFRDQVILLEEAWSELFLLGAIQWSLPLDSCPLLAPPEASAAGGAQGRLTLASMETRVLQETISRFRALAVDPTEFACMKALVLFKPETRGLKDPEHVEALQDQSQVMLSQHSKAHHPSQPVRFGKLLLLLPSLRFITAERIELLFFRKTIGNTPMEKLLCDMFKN

ORF 73 = ORF 73 (Human herpesvirus 8, UniProt O40947); test: inhibitors of C-LANA binding to LBS DNA, dose response, biochemical, fluorescence polarization, cherry-picked samples (AID 504725); design: species or system Human gammaherpesvirus 8;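 further: fluorescence polarization of a labeled DNA duplex reporting LANA DNA binding; potency is for inhibitors that block LANA binding to the DNA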
[32] = biological target: T6, Heat shock factor protein 1 (Mus musculus, UniProt P38532); test: HSF1 potentiators in luciferase reporter cells, confirmation, cell-based, NIH3T3, luminescence, dose retest (AID 435004); assay type: functional;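 further: stress induced by proteasome inhibitor MG132 added 30 min after compound; luciferase reporter driven by HSF1 response element in NIH3T3 cells; actives raise luminescence as potentiators of the MG132 stress response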
T6 sequence (P38532 whole entry): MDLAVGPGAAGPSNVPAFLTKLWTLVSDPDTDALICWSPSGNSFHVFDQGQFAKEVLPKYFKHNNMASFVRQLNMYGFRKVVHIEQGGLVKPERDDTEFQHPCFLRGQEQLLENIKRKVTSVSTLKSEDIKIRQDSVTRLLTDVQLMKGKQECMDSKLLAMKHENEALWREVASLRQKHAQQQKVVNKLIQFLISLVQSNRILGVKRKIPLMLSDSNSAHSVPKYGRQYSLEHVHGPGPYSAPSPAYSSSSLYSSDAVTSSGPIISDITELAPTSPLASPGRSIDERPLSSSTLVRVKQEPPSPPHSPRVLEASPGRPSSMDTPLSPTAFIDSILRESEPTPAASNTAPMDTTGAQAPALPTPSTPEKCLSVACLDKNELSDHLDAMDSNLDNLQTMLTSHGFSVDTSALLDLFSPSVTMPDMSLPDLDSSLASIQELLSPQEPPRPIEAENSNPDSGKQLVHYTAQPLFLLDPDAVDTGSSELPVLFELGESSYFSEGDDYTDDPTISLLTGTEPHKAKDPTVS

Keap1/Nrf2 = Keap1/Nrf2 (Homo sapiens, UniProt Q14145); test: Keap1-Nrf2 protein-protein interaction inhibitors, dose response, biochemical, fluorescence polarization, cherry-picked samples (AID 588683)
Keap1/Nrf2, sequence (Q16236 whole entry): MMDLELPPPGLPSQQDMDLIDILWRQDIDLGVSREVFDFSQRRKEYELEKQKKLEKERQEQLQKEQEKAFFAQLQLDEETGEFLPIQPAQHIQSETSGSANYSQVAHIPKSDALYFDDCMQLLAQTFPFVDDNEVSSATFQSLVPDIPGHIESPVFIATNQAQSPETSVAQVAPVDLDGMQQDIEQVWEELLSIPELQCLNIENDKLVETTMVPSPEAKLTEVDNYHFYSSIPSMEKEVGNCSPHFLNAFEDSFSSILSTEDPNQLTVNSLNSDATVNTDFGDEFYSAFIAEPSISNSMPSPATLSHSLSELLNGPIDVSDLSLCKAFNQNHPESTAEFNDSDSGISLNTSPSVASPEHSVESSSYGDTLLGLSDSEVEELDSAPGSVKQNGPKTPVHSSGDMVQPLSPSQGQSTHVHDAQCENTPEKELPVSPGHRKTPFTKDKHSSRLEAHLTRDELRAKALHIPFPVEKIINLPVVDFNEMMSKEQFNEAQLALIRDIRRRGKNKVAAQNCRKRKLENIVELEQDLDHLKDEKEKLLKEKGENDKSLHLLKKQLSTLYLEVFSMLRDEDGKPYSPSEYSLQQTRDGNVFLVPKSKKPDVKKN
Keap1/Nrf2, sequence (Q14145 whole entry): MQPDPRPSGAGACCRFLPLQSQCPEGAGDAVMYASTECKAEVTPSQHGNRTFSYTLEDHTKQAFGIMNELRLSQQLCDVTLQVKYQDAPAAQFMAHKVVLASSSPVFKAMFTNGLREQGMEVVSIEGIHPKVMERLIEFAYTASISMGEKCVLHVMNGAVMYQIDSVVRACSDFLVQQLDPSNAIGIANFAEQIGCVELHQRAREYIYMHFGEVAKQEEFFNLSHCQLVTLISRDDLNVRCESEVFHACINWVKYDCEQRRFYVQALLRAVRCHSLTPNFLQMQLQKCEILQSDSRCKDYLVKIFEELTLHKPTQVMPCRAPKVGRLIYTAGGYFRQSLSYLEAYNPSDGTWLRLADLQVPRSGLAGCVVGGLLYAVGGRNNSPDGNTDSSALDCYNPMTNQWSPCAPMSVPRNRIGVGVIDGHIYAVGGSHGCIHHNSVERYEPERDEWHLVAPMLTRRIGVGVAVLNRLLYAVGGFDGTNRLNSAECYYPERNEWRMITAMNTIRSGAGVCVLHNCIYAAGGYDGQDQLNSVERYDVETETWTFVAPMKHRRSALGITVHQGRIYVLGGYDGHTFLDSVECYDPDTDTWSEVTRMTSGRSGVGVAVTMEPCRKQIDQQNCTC

Cytochrome P450 3A4 = Cytochrome P450 3A4 (Homo sapiens, UniProt P08684);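 further: CYP3A4 tested as one member of a cytochrome P450 panel screen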
Cytochrome P450 3A4, sequence (P08684 whole entry): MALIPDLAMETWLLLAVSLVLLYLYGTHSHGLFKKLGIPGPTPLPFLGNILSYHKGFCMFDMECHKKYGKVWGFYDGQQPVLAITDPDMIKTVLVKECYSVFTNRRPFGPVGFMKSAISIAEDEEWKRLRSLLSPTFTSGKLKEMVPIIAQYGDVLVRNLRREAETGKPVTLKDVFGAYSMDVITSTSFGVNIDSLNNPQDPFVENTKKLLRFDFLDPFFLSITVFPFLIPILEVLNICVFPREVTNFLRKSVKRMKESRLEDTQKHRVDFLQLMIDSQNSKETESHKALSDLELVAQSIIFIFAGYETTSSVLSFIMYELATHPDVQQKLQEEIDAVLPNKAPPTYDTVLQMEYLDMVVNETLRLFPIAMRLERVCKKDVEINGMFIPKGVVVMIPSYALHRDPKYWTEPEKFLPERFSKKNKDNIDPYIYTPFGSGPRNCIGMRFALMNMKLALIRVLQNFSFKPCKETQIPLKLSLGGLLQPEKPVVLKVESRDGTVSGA

[33] = growth induction of Burl-1 ts yeast mutant, dose response, counter-screen for SUMOylation pathway inhibitor project, whole organism, S. cerevisiae, luminescence (AID 463199); assay type: functional
[34] = biological target: Dual specificity protein phosphatase 3 (Homo sapiens, UniProt P51452); test: SAR VHR1 Fluorescent Assay for In Vitro dose response studies Set 2. [Related pubchem assays (depositor defined):AID1654, AID1661, AID1878]; assay type: functional
Dual specificity protein phosphatase 3, sequence (P51452 whole entry): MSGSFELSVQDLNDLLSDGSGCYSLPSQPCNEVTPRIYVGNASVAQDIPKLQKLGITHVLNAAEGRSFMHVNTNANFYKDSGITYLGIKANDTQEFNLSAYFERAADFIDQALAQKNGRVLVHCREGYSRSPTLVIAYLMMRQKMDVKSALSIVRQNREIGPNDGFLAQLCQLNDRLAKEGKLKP

[35] = biological target: Dual specificity protein phosphatase 6 (Rattus norvegicus, UniProt Q64346); assay type: functional;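 further: confirmatory in vitro dose-response testing of MKP-3 inhibition; recombinant His-tagged MKP-3 made in E. coli BL21 with OMFP substrate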
Dual specificity protein phosphatase 6, sequence (Q64346 whole entry): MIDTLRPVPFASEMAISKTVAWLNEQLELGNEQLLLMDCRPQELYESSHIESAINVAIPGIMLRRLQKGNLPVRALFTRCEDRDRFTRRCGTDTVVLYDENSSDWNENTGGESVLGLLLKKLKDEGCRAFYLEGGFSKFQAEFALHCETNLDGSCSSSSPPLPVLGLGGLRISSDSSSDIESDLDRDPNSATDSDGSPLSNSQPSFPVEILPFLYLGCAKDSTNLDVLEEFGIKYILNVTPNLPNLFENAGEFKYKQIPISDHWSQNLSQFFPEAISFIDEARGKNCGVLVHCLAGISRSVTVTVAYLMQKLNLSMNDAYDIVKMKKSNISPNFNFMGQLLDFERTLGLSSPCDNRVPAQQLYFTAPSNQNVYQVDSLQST

[36] = biological target: UDP-galactopyranose mutase (Mycobacterium tuberculosis, UniProt P9WIQ1); test: Inhibitors of Mycobacterium tuberculosis UDP-galactopyranose mutase (UGM) enzyme Measured in Biochemical System Using Plate Reader - 2105-02_Inhibitor_Dose_CherryPick_Activity. [Related pubchem assays (depositor defined):AID504439]
UDP-galactopyranose mutase, sequence (P9WIQ1 whole entry): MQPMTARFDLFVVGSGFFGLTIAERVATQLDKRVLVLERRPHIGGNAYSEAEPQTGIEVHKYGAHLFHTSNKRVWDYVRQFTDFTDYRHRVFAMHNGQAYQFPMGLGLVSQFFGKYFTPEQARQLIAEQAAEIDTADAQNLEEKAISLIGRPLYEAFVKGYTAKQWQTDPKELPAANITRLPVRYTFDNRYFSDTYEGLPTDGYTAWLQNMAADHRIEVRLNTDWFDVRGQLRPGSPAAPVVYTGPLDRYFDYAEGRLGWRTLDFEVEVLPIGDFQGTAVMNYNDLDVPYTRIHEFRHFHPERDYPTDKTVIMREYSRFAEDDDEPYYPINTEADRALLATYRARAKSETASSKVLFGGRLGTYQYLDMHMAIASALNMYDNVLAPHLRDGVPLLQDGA

COc1cc2c(cc1NC(=O)c1cccc([N+](=O)[O-])c1C)oc1ccccc12
active: AC50 [1] 2.65 µM | AC50 [2] 41.4 µM

Cc1ccc2nc(NNC(=O)c3ccc(S(=O)(=O)N4CCc5ccccc5C4)cc3)sc2c1
inactive: EC50 [10] > 100 µM
> 350 µM (not active): EC50 (cells [8])
active: IC50 [3] 3.03 µM | EC50 [4] 0.499 µM | EC50 (cells [5]) 13.5 µM | IC50 [6] 2.7 µM | EC50 [7] 0.904 µM | EC50 [9] 3.65 µM | AC50 [1] 3.74 µM | AC50 (INS1) 2.17 µM | AC50 [11] 1.62 µM | AC50 [12] 2.88 µM | AC50 [13] 1.78 µM | IC50 [14] 9.9 µM | IC50 [15] 52.7 µM | AC50 (Paired box protein Pax-8) 3.01 µM | AC50 [16] 6.18 µM | AC50 [17] 18.3 µM | AC50 [18] 19.5 µM | AC50 [19] 14.8 µM | AC50 [20] 31.1 µM | AC50 [21] 5.81 µM | AC50 [22] 8.28 µM | AC50 [23] 31.1 µM | AC50 [24] 13.7 µM | AC50 [25] 9.99 µM | AC50 [26] 9.32 µM | AC50 (Escherichia coli) 39 µM
> 150 µM (not active): EC50 (Streptokinase A) | EC50 (Streptococcus)

O=c1[nH]c2c(s1)C=Nc1ccccc1N2
> 112 µM (not active): EC50 [29]
active: IC50 [30] 2.26 µM | IC50 [31] 3.14 µM | AC50 (ORF 73) 5.1 µM | AC50 (Keap1/Nrf2) 9.53 µM
inconclusive: EC50 [27] 2.6 µM | EC50 [28] 1.23 µM
inactive: EC50 [32] > 260 µM
> 150 µM (not active): EC50 (Streptokinase A)

CC(=O)Nc1ccccc1C(=O)OCc1ccc(C(=O)c2ccccc2)cc1
inconclusive: AC50 (Cytochrome P450 3A4)

Cc1ccc(C2C(C(=O)c3cccs3)=C(O)C(=O)N2c2ccc(S(N)(=O)=O)cc2)cc1 (stereo not drawn)
active: AC50 [33] 48.5 µM

NS(=O)(=O)c1cc(C(=O)NC2CCSc3ccccc32)c(Cl)cc1Cl (stereo not drawn)
inactive: IC50 [34] > 100 µM | IC50 [35] > 100 µM

CCOCCCn1/c(=N/C(=O)c2cccs2)c(C#N)cc2c(=O)n3ccccc3nc21
active: EC50 [27] 28.9 µM
inactive: AC50 [36] > 500 µM
inconclusive: EC50 [28] 40 µM
